{"source": "patent US20130280214A1", "about": "“POLYCYCLIC HETEROCYCLE DERIVATIVES AND METHODS OF USE THEREOF FOR THE TREATMENT OF VIRAL DISEASES” (Merck Sharp & Dohme Corp., priority 2010, published 2013)", "key": {"[1]": {"tested_on": "HCV replicon", "test": "RHEPLUC assay (replicon luciferase, EC50 of single agents)", "assay_type": "cell-based, Hepatitis C virus (HCV)", "details": "Hepatitis C virus", "description": "The previously determined EC50 for each test compound is then placed in the middle of the combination study titration curve.\nTest compounds are ordered at 4000× final concentration, one or two days before the assay, and are diluted 1/10 in DMSO (400× concentration). The diluted first test compound (400×) is distributed in a first low dead volume plate as described in FIG. 1. The diluted second test compound (400×) is distributed in a second low dead volume plate as described in FIG. 2.\nTo obtain maximum luciferase signal (0% inhibition control), 100% DMSO is added to the 200× test compound mix plate. For minimum luciferase signal (100% inhibition control), a known NS5A inhibitor (Compound A, EC50 of 0.01 nM, made as described in International Patent Application No. PCT/US2010/028653) is used at 1 nM final concentration. Accordingly, 6 μL of 200 nM Compound A is added to the 200× test compound mix plate (see FIG. 4).\nOn the day of the experiment, Complete growth media (10 μL) is added to all wells in a 384 well assay plate, then 150 nL per well from the test compound mix plate is added to the assay plate.\nThe cell monolayer is rinsed with pre-warmed PBS (˜37° C.), then pre-warmed trypsin (0.25%, ˜37° C.) is added and the cells are incubated for 2 to 5 minutes in 5% CO2 at 37° C. Complete growth media is then added, cells are mixed and counted, and then diluted in complete growth media to a final concentration of 1.0×10^5 cells/mL. […]\nBright-Glo Luciferase reagent is prepared as specified by the kit instructions and kept in the dark until the reagent has reached room temperature. […] The plate is allowed to incubate for 5 minutes at room temperature, then the plate is placed on a reader within 30 minutes after incubation is complete, and the luminescence is monitored at 0.5 seconds per well.\nUsing the RHEPLUC assay, EC50 values were calculated prior to initiation of combination studies for a selected Polycyclic Heterocycle Derivative of the present invention (compound 2) and for two first additional therapeutic agents of the present invention (compounds F5 and F7)."}, "[2]": {"test": "Cytotoxicity assay (CellTiter Blue)", "assay_type": "cell-based", "details": "CellTiter Blue, cells treated 72 hours", "description": "(§1) The cytotoxicity of compounds of Table 1 and of the additional therapeutic agents used in the compositions and methods of the present invention can be measure using the assay described below.\n(§2) Compounds are ordered 1 or 2 days before the experiment. Compounds and cells are prepared using the method described in Example 2 for the RHEPLUC assay (See FIG. 1) or combination study (See FIG. 2)\n(§3) After 3 day incubation of cells with individual test compounds, cytotoxicity is determined using CellTiter Blue as described in the assay protocol below.\n(§4) The CellTiter Blue solution (4 mL) is diluted with 1× Dulbecco's PBS (16 mL). 5 μL of the resulting solution is added to each well of the 384 well assay plate containing cells treated with compound for 72 hours. The plate is shaken for 10 seconds, then incubated in 5% CO2 at 37° C. for 1 hour. The plate is then shaken again for 10 seconds and the fluorescence is measured at excitation wavelength 540 nm and emission wavelength 590 nm.\n(§5) NOTE: cells (all genotypes and mutants) are cultured in DMEM/10% FBS in the presence of G418. During the assay G418 is absent.\n(§6) For cytotoxicity assays data is analyzed to obtain the CC50 of each compound tested alone and in combination. The analysis uses the average of 100% cytotoxicity (media only without cells) and 0% cytotoxicity (100% viability, 0.5% DMSO in the presence of cells) to calculate the percentage of compound cytotoxicity and CC50 using the following 4 parameter equation:\n(§7) Wherein average low=100% cytotoxicity (media only) and average high=100% viability (0.5% DMSO).\n(§8) CC50 values were calculated for a selected Polycyclic Heterocycle Derivative of the present invention (compound 2) and for […] first additional therapeutic agents of the present invention. The therapeutic index for the selected compounds was also calculated, wherein TI=CC50/EC50."}, "[3]": {"tested_on": "replicon cells", "test": "Cytotoxicity assay (CellTiter Blue)", "assay_type": "cell-based", "details": "TI=CC50/EC50", "description": "as §1, §2, §3, §4, §5, §6, §7, §8"}, "[4]": {"tested_on": "genotype 1a replicon cells", "test": "3-day cell-based HCV replicon assay (Taqman)", "details": "Hepatitis C virus", "description": "The replicon RNA level was measured using real time PCR (Taqman assay). […] EC50 was defined as the concentration of inhibitor necessary to achieve ΔCT=1 over the projected baseline; EC90 the concentration necessary to achieve ΔCT=3.2 over the baseline. Alternatively, to quantitate the absolute amount of replicon RNA, a standard curve was established by including serially diluted T7 transcripts of replicon RNA in the Taqman assay. All Taqman reagents were from PE Applied Biosystems. Such an assay procedure was described in detail in e.g. Malcolm et al., Antimicrobial Agents and Chemotherapy 50: 1013-1020 (2006)."}, "[5]": {"tested_on": "genotype 1a replicon cells", "test": "15-day cell-based HCV replicon curing assay", "design": "species or system Hepatitis C virus (HCV)", "details": "genotype 1a replicon cells treated 15 days"}, "[6]": {"details": "RHEPLUC assay, single agent, 72 hours incubation"}}, "note": "Like-named read-outs stand apart in the source and are kept apart here.", "data": [{"smiles": "COC(=O)N[C@H](C(=O)N1CCC[C@H]1c1ncc(-c2ccc(-c3cc4cc(-c5cnc([C@@H]6CCCN6C(=O)[C@@H](NC(=O)OC)C(C)C)[nH]5)ccc4o3)cc2)[nH]1)C(C)C", "note": "[Compound 2]", "values": [{"measurement": "EC50", "setting": "[1]; [6]", "value": 0.004, "unit": "nM"}, {"measurement": "CC50 at 72 h", "setting": "[2]", "value": 9700, "unit": "nM"}, {"measurement": "Therapeutic Index", "setting": "[3]", "value": 2425000}, {"measurement": "EC90", "setting": "[4]; printed as 1×EC90, read-out: EC90", "value": 0.006, "unit": "nM"}]}, {"smiles": "COC(=O)NC(C(=O)N1CCC[C@H]1c1ncc(-c2ccc3oc(-c4ccc(-c5cnc([C@@H]6CCCN6C(=O)[C@H](NC(=O)OC)c6ccccc6)[nH]5)cc4)cc3c2)[nH]1)c1ccccc1", "note": "(stereo partly shown) [Compound A, reference compound]", "values": [{"measurement": "EC50", "setting": "[1]; known NS5A inhibitor used as 100% inhibition control, assay of the value not stated", "value": 0.01, "unit": "nM"}]}, {"smiles": "C=C[C@@H]1C[C@]1(NC(=O)[C@@H]1C[C@@H]2CN1C(=O)[C@H](C(C)(C)C)NC(=O)O[C@@H]1C[C@H]1CCCCCc1nc3ccc(OC)cc3nc1O2)C(=O)NS(=O)(=O)C1CC1", "note": "[Compound F5]", "values": [{"measurement": "EC50", "setting": "[1]; [6]", "value": 0.322, "unit": "nM"}, {"measurement": "CC50 at 72 h", "setting": "[2]", "value": 35000, "unit": "nM"}, {"measurement": "Therapeutic Index", "setting": "[3]", "value": 108865}, {"measurement": "EC90", "setting": "[4]; printed value is three times the EC90, read-out: 3×EC90", "value": 7.5, "unit": "nM"}, {"measurement": "NS3 (amino acid residues 1-180) population sequence analysis, resistance mutations", "setting": "[5]", "value": "low levels of D168G and P88A"}]}]}
